# Source: patent US4954482A, “New glycopeptide antibiotic” (Pfizer Inc., priority 1986, dated 1990)
# Test system: rumen fluid
# Experiment: In vitro rumen technique: propionic acid production
# Format: cell-based, cow
# Settings: 10 micrograms per milliliter; rumen fluid incubated at 39° C. about 16 hours
# Experimental: The value of animal feeds has generally been determined directly by feeding the animal. British Patent Specification No. 1,197,826 details an in vitro rumen technique whereby the changes occurring in feeds brought about by microorganisms are measured more readily and with great accuracy in the evaluation of animal feeds. This technique involves the use of an apparatus in which the digestive processes of the animals are conducted and studied in vitro. The animal feeds, rumen inoculum and various growth promotants are introduced into and withdrawn from a laboratory unit under carefully controlled conditions and the changes taken place are studied critically and progressively during the consumption of the feed by the microorganisms. […] The change in propionic acid content is expressed as percent of the propionic acid content found in the control rumen fluid. Long term in vivo feeding studies are used to show a reliable correlation between propionic acid increase in the rumen fluid and improved animal performance. […]
# After incubation, 5 ml. of the sample is mixed with 1 ml. of 25% metaphosphoric acid. […] Samples are then analyzed by gas-liquid chromatography by the mthod of D. W. Kellog, J. Dairy Science, 52, 1690, 1969. Peak heights for acetic, propionic and butyric acids are determined for samples from untreated and treated incubation flasks.
smiles,measurement,value
CC[C@@H](C(=O)[C@@H](C)[C@@H](O)[C@H](C)[C@@H]1O[C@@H]([C@@H](CC)C(=O)O)CC[C@@H]1C)[C@H]1O[C@]2(C=C[C@@H](O)[C@]3(CC[C@@](C)([C@H]4CC[C@](O)(CC)[C@H](C)O4)O3)O2)[C@H](C)C[C@@H]1C [salinomycin],increase in the production of propionic acid over control,~46%
